The results in this text go back to PubChem BioAssay (NCI).

Molecules are shown by their SMILES. Several values for one entry are separate records, joined by “and”; a condition that tells them apart may be missing. Equal values may be shown once.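 Cultured in 96-well plates, cells were exposed to test compound for 48 hours across five concentrations. The concentration for 50% growth inhibition is given as GI50. At the TGI there is no net growth.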 A value given as a limit tells only on which side of the number the result lay.

Some test systems named below: OVCAR-5 ovarian; NCI-H522 lung; CAKI-1 renal; RXF 393 renal; HCT-116 colon; HCT-15 colon; NCI-H226 lung; SK-MEL-28 melanoma; MOLT-4 leukemia; K-562 leukemia; IGROV1 ovarian.
What all share (assay): NCI tumour cell line growth inhibition, 48 h

Take `CC(C)=CCC/C(C)=C/CC/C(C)=C/[C@@H]1[C@@H](CO)[C@]1(C)CC/C=C(\C)CCC=C(C)C`: the TGI was more than 100 µM in the experiment with OVCAR-5 ovarian; 32.7 µM in the experiment with NCI-H522 lung; more than 100 µM with CAKI-1 renal; 72.8 µM in the experiment on RXF 393 renal; more than 100 µM in the experiment with HCT-116 colon; more than 100 µM in the experiment on HCT-15 colon. Besides, the TGI in the experiment with NCI-H226 lung is 44.5 µM; with SK-MEL-28 melanoma, more than 100 µM; in the experiment on MOLT-4 leukemia it was more than 100 µM; with K-562 leukemia, more than 100 µM; in the experiment with IGROV1 ovarian, 27.5 µM.

On to `Cc1cc(N2CCOCC2)nc(N(CCCNc2ccnc3cc(Cl)ccc23)Cc2ccc3c(c2)OCO3)n1`, for which the GI50 with HCT-116 colon was 0.464 µM; with MOLT-4 leukemia, 0.598 µM; in the experiment on K-562 leukemia it was 0.436 µM. The TGI in the experiment with HCT-116 colon turned out to be 1.63 µM; in the experiment with MOLT-4 leukemia it was 2.97 µM; in the experiment with K-562 leukemia, 2.42 µM.

Consider `CC(Br)C(=O)c1ccc2cc(Br)c3ccccc3c2c1` (stereo not given), for which the TGI was 31.4 µM in the experiment with OVCAR-5 ovarian; 16.7 µM with NCI-H522 lung; 30.1 µM in the experiment on CAKI-1 renal; 30.2 µM with RXF 393 renal; 29.9 µM in the experiment with HCT-116 colon; 31 µM with HCT-15 colon. Also, the TGI in the experiment with SK-MEL-28 melanoma turned out to be 34 µM; in the experiment on K-562 leukemia, 42.9 µM; with IGROV1 ovarian, 26.3 µM.

Turning to `COC1OC(C(=O)CP(=O)(OC)OC)C(OCc2ccccc2)C(OCc2ccccc2)C1OCc1ccccc1` (stereo not given), the TGI is 29.2 µM and 31.8 µM with OVCAR-5 ovarian; 29.5 µM and 32.2 µM in the experiment with NCI-H522 lung; 36 µM and 36.7 µM in the experiment with CAKI-1 renal; 26.3 µM and 29.5 µM in the experiment on RXF 393 renal; 29 µM and 30.2 µM with HCT-116 colon; 33.4 µM and 36.1 µM in the experiment with HCT-15 colon. The TGI in the experiment on NCI-H226 lung was 39.5 µM and 35.1 µM; with SK-MEL-28 melanoma, 40 µM and 33.2 µM; in the experiment with MOLT-4 leukemia it was 32.7 µM and 50.3 µM; in the experiment on K-562 leukemia, 63.1 µM and > 100 µM; with IGROV1 ovarian, 35.9 µM and 35.4 µM.

On to `O=C(COC(c1ccc(F)cc1)c1ccc(F)cc1)N1CCN(CCCc2ccccc2)CC1`, for which the TGI was 14.7 µM in the experiment with OVCAR-5 ovarian; 18.6 µM in the experiment with NCI-H522 lung; 4.15 µM with CAKI-1 renal; 8.1 µM in the experiment on RXF 393 renal; 10.5 µM in the experiment with HCT-116 colon; 11.4 µM with HCT-15 colon. Also, the TGI in the experiment on NCI-H226 lung is 8.73 µM; in the experiment on SK-MEL-28 melanoma it was more than 100 µM; with MOLT-4 leukemia, more than 100 µM; in the experiment on K-562 leukemia, more than 100 µM; in the experiment with IGROV1 ovarian it was 19 µM.

Regarding `NC(CCc1ccccc1)(C(=O)O)c1ccccc1` (stereo not given), the TGI in the experiment on OVCAR-5 ovarian, in the experiment on NCI-H522 lung, with CAKI-1 renal, with RXF 393 renal, with HCT-116 colon and in the experiment with HCT-15 colon was more than 100 µM throughout. Besides, the TGI in the experiment with NCI-H226 lung, with SK-MEL-28 melanoma, with MOLT-4 leukemia, in the experiment with K-562 leukemia and in the experiment with IGROV1 ovarian was more than 100 µM each time.

`CCOC(=O)C(C)OC(=O)c1ccc(C)cc1` (stereo not given): the TGI in the experiment with OVCAR-5 ovarian, in the experiment with NCI-H522 lung, in the experiment on RXF 393 renal, in the experiment with HCT-116 colon, in the experiment on HCT-15 colon and in the experiment with SK-MEL-28 melanoma was more than 100 µM in each case. In addition, the TGI with MOLT-4 leukemia, in the experiment on K-562 leukemia and in the experiment with IGROV1 ovarian was more than 100 µM in each case.

For the molecule `Fc1cc(C2=C[C@H](c3ccc4c(c3)OCO4)NC(=S)N2)c(Cl)cc1Cl`, the TGI in the experiment on OVCAR-5 ovarian, with NCI-H522 lung, in the experiment with CAKI-1 renal, in the experiment with RXF 393 renal, in the experiment on HCT-116 colon and with HCT-15 colon was more than 100 µM in each case. Further, the TGI in the experiment with NCI-H226 lung, with SK-MEL-28 melanoma, in the experiment with MOLT-4 leukemia, in the experiment with K-562 leukemia and in the experiment with IGROV1 ovarian was more than 100 µM in each case.

With `CC(C)(C)c1ccc(O)c(Br)c1`, the TGI with OVCAR-5 ovarian, in the experiment on NCI-H522 lung, in the experiment with RXF 393 renal, with HCT-116 colon, in the experiment with HCT-15 colon and in the experiment on NCI-H226 lung was more than 100 µM in each case. Further, the TGI with SK-MEL-28 melanoma, in the experiment with MOLT-4 leukemia, with K-562 leukemia and in the experiment with IGROV1 ovarian was more than 100 µM in each case.

As for `COc1cccc(/C=N/[N-]C(N)=O)c1[O-].[Cu+2].[OH3+].c1cnc2c(c1)ccc1cccnc12`, the TGI was more than 100 µM in the experiment on OVCAR-5 ovarian; 33.9 µM with CAKI-1 renal; 27.8 µM in the experiment on HCT-116 colon; more than 100 µM in the experiment on HCT-15 colon; 42.5 µM in the experiment with NCI-H226 lung; 29.7 µM in the experiment with SK-MEL-28 melanoma. Moreover, the TGI is more than 100 µM with MOLT-4 leukemia, 39.3 µM with K-562 leukemia and 45.7 µM in the experiment with IGROV1 ovarian.

On to `Clc1ccc(NCc2nnc(COc3ccc(OCc4nnc(CNc5ccc(Cl)cc5)o4)c(Cl)c3)o2)cc1`, for which the TGI is more than 100 µM with OVCAR-5 ovarian; 46.5 µM in the experiment on NCI-H522 lung; more than 100 µM in the experiment with CAKI-1 renal; more than 100 µM with RXF 393 renal; more than 100 µM in the experiment on HCT-116 colon; more than 100 µM in the experiment on HCT-15 colon. The TGI in the experiment with NCI-H226 lung, in the experiment on SK-MEL-28 melanoma and in the experiment on IGROV1 ovarian was more than 100 µM in each case.

With `COc1cc(S(=O)(=O)N/N=C/C=C/c2ccccc2)c(OC)cc1NC(C)=O`, the TGI in the experiment on OVCAR-5 ovarian, in the experiment with NCI-H522 lung, in the experiment on CAKI-1 renal, in the experiment with RXF 393 renal, in the experiment on HCT-116 colon and with HCT-15 colon was more than 100 µM throughout. The TGI with SK-MEL-28 melanoma and in the experiment with IGROV1 ovarian was more than 100 µM in each case.

For `COC(=O)c1c(O)ccc2c1c1c(n2Cc2ccccn2)C(=O)c2ccccc2C1`, the TGI in the experiment with OVCAR-5 ovarian, in the experiment on CAKI-1 renal, with RXF 393 renal, in the experiment on HCT-116 colon, in the experiment with HCT-15 colon and with NCI-H226 lung was more than 100 µM in each case. Further, the TGI with SK-MEL-28 melanoma, in the experiment on MOLT-4 leukemia, in the experiment on K-562 leukemia and in the experiment with IGROV1 ovarian was more than 100 µM throughout.

As for `Cc1cc(O)c2c(c1O)C(=O)c1c(O)ccc(O)c1C2=O`, the TGI in the experiment on OVCAR-5 ovarian, with NCI-H522 lung, with CAKI-1 renal, in the experiment on RXF 393 renal, with HCT-116 colon and in the experiment with HCT-15 colon was more than 100 µM throughout. In addition, the TGI in the experiment on NCI-H226 lung, in the experiment with MOLT-4 leukemia, with K-562 leukemia and in the experiment with IGROV1 ovarian was more than 100 µM in each case.
